Measured values taken from US4250259A, “Microbiological production of ketones from C3 -C6 secondary alcohols” (priority 1979, dated 1981).
“Also recorded” adds a separate entry of the source.

Assays:
[1] = tested on: Methylosinus trichosporium OB3b (NRRL B-11,196); assay: sec-alcohols to ketones by resting cell suspensions; type: cell-based
Procedure: (§1) The pH of the nutrient medium was adjusted to 7.0 by the addition of acid or base and 50 ml. samples of the nutrient medium were charged into a plurality of 300 ml. shaker flasks. The shaker flasks were inoculated with an inoculating loop of cells from an agar plate containing homogeneous colonies of the microorganisms on the plate (the purity of the isolates was confirmed by microscopic examination). The isolates had been maintained on methanol (0.4% V/V) agar plates or on agar plates under an atmosphere of methane and air having a 1:1 V/V gas ratio which had been transferred every two weeks. For growth on methanol, the medium was supplemented with 0.4% methanol. For growth on methane, the gaseous phase of the inoculated flasks was replaced with a gas mixture comprised of methane and air having a ratio of 1:1 on a V/V basis. The inoculated flasks were sealed air-tight and were incubated on a rotary shaker of orbital radius 2.5 cm. at 250 rpm and at 30° C. for two days until turbidity in the medium had developed. The cells were harvested by centrifugation at 10,000×g. at 4° C. for 30 minutes. The cell pellet was washed twice with a 0.05 M phosphate buffer at a pH of 7.0 (containing 0.02 M MgCl2). The washed cells were then suspended in a 0.05 M phosphate buffer at pH 7.0.
(§2) A 0.5 ml. sample of each washed cell suspension (2 mg. cells) was put into 10 ml. vials at 4° C. which were sealed with a rubber cap. The gaseous phase of the vials was removed with vacuum and then was replaced with a gas mixture of the substrate reactant (i.e., alkane or secondary alcohol) and oxygen at a 1:1 V/V ratio. (In the case of a liquid substrate, i.e., secondary alcohol, 10 μl of the substrate was put in the 10 ml. vials). […] Samples of product (1-3 μl) were withdrawn periodically with a microsyringe and the products were analyzed by gas chromatography (ionization flame detector column).
(§3) The procedure in Example 1 was repeated wherein a plurality of the methane-utilizing methylotrophic microorganisms were each grown aerobically in a nutrient medium containing methane as the alcohol dehydrogenase enzyme inducer and as the major carbon and energy source for growth. The cells were harvested and washed as described in Example 1. The resting microbial cells of the induced methane-grown methane-utilizing methylotrophic microorganisms were then contacted with C3 -C6 secondary alcohols in a buffered solution by the procedure of Example 1.
(§4) In this example, the procedure in Example 1 was repeated except that a plurality of methane-utilizing methylotrophic microorganisms were each aerobically grown in a methanol-containing nutrient medium instead of a methane-containing medium. The nutrients in the medium were the same as indicated in Example 1 except that 0.4% V/V methanol was used as the alcohol dehydrogenase inducer and major source of carbon and energy for growth. Following growth, the cells were harvested and washed as described in Example 1.
(§5) The resting cells of the induced methanol-grown methylotrophic microorganisms were then contacted with secondary alcohols in a buffered solution by the procedure described in Example 1.
The procedure in Example 1 was repeated except that the methylotrophic microorganisms were each aerobically grown in an alcohol dehydrogenase-inducing growth medium containing methylamine or methyl formate as the alcohol dehydrogenase enzyme inducer and growth substrate instead of methane. The nutrients in the medium were the same as indicated in Example 1 except that 0.4% V/V of the alcohol dehydrogenase-inducer growth substrate was used as the major carbon and energy source. The cells were harvested and washed as described in Example 1. The resting microbial cells were then contacted with C3 -C6 secondary alcohols in a buffered solution by the conversion procedure of Example 1.

[2] = tested on: Pseudomonas MS ATTC 25262 (Facultative); assay: as above; type: cell-based; settings: methanol-grown cells
Procedure: as §1, §2
(§6) The procedure in Example 1 was repeated except that a plurality of methanol-utilizing methylotrophic microorganisms were each aerobically grown in a methanol-containing nutrient medium instead of a methane-containing medium. The nutrients in the medium were the same as indicated in Example 1 except that 0.4% V/V methanol was used as the alcohol dehydrogenase inducer and as the major carbon and energy source for growth. The cells were harvested and washed as described in Example 1. The resting microbial cells of the induced methanol-grown methanol-utilizing methylotrophic microorganisms were then contacted with C3 -C6 secondary alcohols in a buffered solution by the procedure of Example 1.

[3] = tested on: Pseudomonas sp. ATCC 21439 (Obligate); assay: as above; type: cell-based; settings: methanol-grown cells
Procedure: as §1, §2, §6

[4] = tested on: cell suspensions of C1-utilizers; assay: studies on production of 2-butanone from 2-butanol by cell suspensions of the strains tested; type: cell-based; settings: for rate of oxidation of secondary alcohols by strains of C1-utilizers: cell suspensions
Excerpt: The following summarizes tests conducted on the optimal conditions for the production of methyl ketones from C3 -C6 sec. alcohols.
The substrate specificity for the oxidation of C3 -C6 secondary alcohols by the strains of C1 -utilizers was studied.

[5] = tested on: secondary alcohol dehydrogenase (SADH), cell-free soluble extract; assay: oxidation of sec-alcohols by cell-free soluble extracts; type: biochemical, Methylococcus capsulatus CRL M1 (NRRL B-11,219); settings: for Oxidation Rate, sec-alcohol to corresponding ketone: soluble crude extract, grown on methanol
Procedure: To prepare the cell-free secondary alcohol dehydrogenase (SADH) system, the washed cells were disrupted with a Wave Energy Ultrasonic Oscillator, Model W201 (Wave Energy System, Inc., Newtown, Pa.) and centrifuged at 20,000×g. for 30 minutes. […] The enzyme activity was measured with a fluorescence spectrophotometer (Perkin Elmer, Model MPF 44A) by following the formation of reduced NAD (EX 340 nm, Em 460 nm). The formation of reduced NAD was also followed with an absorption spectrophotometer at 340 nm. The assay system (3 ml.) contained: potassium phosphate buffer pH 7.0; 150 μmol.; NAD 1 μmol.; a given amount of enzyme preparation; and secondary alcohol 10 μmol. The reaction was started by the addition of substrate. One unit of enzyme activity represents the reduction of one μmole NAD per minute. Protein concentrations were determined by the Lowry method (J. Biol. Chem., 193: 255-275 (1951)).
The experimental procedure for the tests reported in Table VIII were as follows: 1 mg protein of crude extract was added into a 0.5 ml. 0.05 M phosphate buffer (pH 7.0) in a 10-ml. vial. […] The reaction mixture was incubated at 30° C. on a water bath. A 3 μl sample was removed with a syringe at 15 min. of incubation and was assayed with g.l.c. Catalytic activity was also assayed by fluorescence spectrophotometry.

[6] = tested on: purified secondary alcohol dehydrogenase (SADH); assay: substrate specificity and Michaelis constants of purified SADH; type: biochemical, Pseudomonas sp. ATCC 21439
[7] = tested on: Kloeckera sp. Strain A2 (NRRLY-11,420); assay: sec-alcohols to ketones by cell suspensions of yeasts; type: cell-based
[8] = tested on: cell extracts (NAD+-dependent secondary alcohol dehydrogenase); assay: sec-alcohols to methyl ketones by cell extracts of yeasts, gas chromatography; type: biochemical, Pichia sp. NRRL-Y-11,328; settings: grown on methanol
[9] = tested on: Methylomonas albus BG8 (NRRL B-11,200); assay: sec-alcohols to ketones by resting cell suspensions; type: cell-based
Procedure: as §1, §2, §3, §4, §5

Row | Structure (SMILES) | Conversion Rates, sec-alcohol to corresponding ketone ([1]; cells grown on methane) [μmoles/hr/mg protein] | Conversion Rates, sec-alcohol to corresponding ketone ([1]; cells grown on methanol) [μn moles/hr/mg protein] | Conversion Rates, sec-alcohol to corresponding ketone ([1]; methyl formate-grown cells) [μmoles/hr/mg protein] | Conversion Rates, sec-alcohol to corresponding ketone [2] [μmoles/hr/mg protein] | Conversion Rates, sec-alcohol to corresponding ketone [3] [μmoles/hr/mg protein] | rate of oxidation of secondary alcohols by strains of C1-utilizers [4] | Oxidation Rate, sec-alcohol to corresponding ketone [5] [nmole/min/mg protein] | oxidation by purified SADH [6] | Conversion Rate, sec-alcohol to corresponding ketone ([7]; Growth Substrate Ethanol) | Conversion Rate, sec-alcohol to corresponding ketone ([7]; Growth Substrate Methanol) | Conversion Rate, sec-alcohol to corresponding ketone ([7]; Growth Substrate Methylamine) | Conversion Rate, sec-alcohol to corresponding ketone ([7]; Growth Substrate Methylformate) | Conversion Rate, sec-alcohol to corresponding ketone ([7]; Growth Substrate Propylamine) | Conversion Rate, sec-alcohol to methyl ketone [8] [μmoles/hr/mg Protein] | Conversion Rates, sec-alcohol to corresponding ketone ([9]; cells grown on methane) [μmoles/hr/mg protein] | Conversion Rates, sec-alcohol to corresponding ketone ([9]; cells grown on methanol) [μn moles/hr/mg protein] | further results
1 | CCCC(C)O (centres unmarked) [2-Pentanol, 2-pentanol] | 2.7 | 2.9 | 1.5 | 2.1 | 0.05 | much slower rate | 0.1 | lower rate | 1.0 μmoles/hr/mg of protein | 1.2 μmoles/hr/mg of protein | 1.0 μmoles/hr/mg of protein | 1.2 μmoles/hr/mg of protein | 0.92 μmoles/hr/mg of protein | 1.2 |  |  | 
2 | CC(C)O [2-Propanol, 2-propanol] | 0.25 | 0.30 | 0.95 | 0.80 | 7.4 | higher rates | 1.7 | highest | 4.5 μmoles/hr/mg of protein | 4.8 μmoles/hr/mg of protein | 4.0 μmoles/hr/mg of protein | 4.9 μmoles/hr/mg of protein | 4.0 μmoles/hr/mg of protein | 5.5 | 1.3 | 1.5 | 
3 | CCC(C)O (centres unmarked) [2-Butanol, 2-butanol] | 3.7 | 4.1 | 4.5 | 3.5 | 4.7 | highest rate; also recorded: higher rates | 2.0 | highest | 5.7 μmoles/hr/mg of protein | 5.9 μmoles/hr/mg of protein | 5.4 μmoles/hr/mg of protein | 5.9 μmoles/hr/mg of protein | 4.2 μmoles/hr/mg of protein | 6.2 | 3.5 | 3.0 | 2-butanol concentration supporting maximum 2-butanone production ([4]; cell suspensions of yeast and Pseudomonas sp. ATCC 21,439, 35 min. incubation): about 50 μmoles; Conversion Rate, 2-butanol to 2-butanone ([5]; Growth Substrate CH3 NH2): 1.8 nmoles/min/mg protein; Conversion Rate, 2-butanol to 2-butanone ([5]; Growth Substrate CH3 OH): 2.0 nmoles/min/mg protein; Conversion Rate, 2-butanol to 2-butanone ([5]; Growth Substrate CH4): 3.2 nmoles/min/mg protein; Conversion Rate, 2-butanol to 2-butanone ([5]; Growth Substrate HCOOCH3): 2.0 nmoles/min/mg protein
4 | CCCCC(C)O (centres unmarked) [2-Hexanol, 2-hexanol] | 0.07 | 0.9 | 0.72 | 0.80 | 0.03 | much slower rate | 0 | lower rate | 0.12 μmoles/hr/mg of protein | 0.25 μmoles/hr/mg of protein | 0.10 μmoles/hr/mg of protein | 0.28 μmoles/hr/mg of protein | 0.11 μmoles/hr/mg of protein | 0.60 |  |  | 
